Measurements published in patent publication US12655116B2, “Substituted isophthalic acid diamides” (Bayer Aktiengesellschaft, priority 2020, dated 2026).

What was measured:
ABUTH [1] = assay: Pre-emergence herbicidal action against ABUTH; assay type: in vivo, Abutilon theophrasti; conditions: Abutilon theophrasti, 504 h, 80 g/ha, scored visually after 3 weeks vs untreated controls (100% = plants have died, 0% = like control plants)
Summary of the method: (§1)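 Greenhouse pots of sandy loam held seeds covered with soil, onto which the compound was applied before emergence. An aqueous suspension or emulsion of WP or EC was used at 600 to 800 l/ha with 0.2% wetting agent. Percent damage was judged visually at 3 weeks.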

ALOMY [2] = assay: Pre-emergence herbicidal action against ALOMY; assay type: in vivo, Alopecurus myosuroides; conditions: Alopecurus myosuroides, 504 h; 80 g/ha, pre-emergence, scored visually after 3 weeks vs untreated controls (100% = plants have died, 0% = like control plants)
Summary of the method: as §1

AMARE [3] = assay: Pre-emergence herbicidal action against AMARE; assay type: in vivo, Amaranthus retroflexus; conditions: Amaranthus retroflexus, 504 h, scored visually after 3 weeks vs untreated controls, 100% = plants have died, 0% = like control plants
Summary of the method: as §1

AVEFA [4] = assay: Pre-emergence herbicidal action against AVEFA; assay type: in vivo, Avena fatua; conditions: Avena fatua, 504 h, pre-emergence
Summary of the method: as §1

ECHCG [5] = assay: Pre-emergence herbicidal action against ECHCG; assay type: in vivo, Echinochloa crus-galli; conditions: Echinochloa crus-galli, 504 h
Summary of the method: as §1

MATIN [6] = assay: Pre-emergence herbicidal action against MATIN; assay type: in vivo, Matricaria inodora; conditions: Tripleurospermum inodorum, 504 h; for pest or weed control at 20 g/ha: dosage 20 g/ha; for pest or weed control at 80 g/ha: dosage 80 g/ha
Summary of the method: as §1

PHBPU [7] = assay: Pre-emergence herbicidal action against PHBPU; assay type: in vivo, Pharbitis purpurea; conditions: Ipomoea purpurea, 504 h, dosage 80 g/ha
Summary of the method: as §1

POLCO = assay: Pre-emergence herbicidal action against POLCO; assay type: in vivo, Polygonum convolvulus; conditions: Fallopia convolvulus, 504 h; for pest or weed control at 80 g/ha: dosage 80 g/ha
Summary of the method: as §1

SETVI [8] = assay: Pre-emergence herbicidal action against SETVI; assay type: in vivo, Setaria viridis; conditions: Setaria viridis, 504 h; for pest or weed control at 20 g/ha: dosage 20 g/ha; for pest or weed control at 80 g/ha: dosage 80 g/ha
Summary of the method: as §1

VERPE [9] = assay: Pre-emergence herbicidal action against VERPE; assay type: in vivo, Veronica persica; conditions: Veronica persica, 504 h, dosage 80 g/ha
Summary of the method: as §1

VIOTR [10] = assay: Pre-emergence herbicidal action against VIOTR; assay type: in vivo, Viola tricolor; conditions: Viola tricolor, 504 h; for pest or weed control at 20 g/ha: dosage 20 g/ha; for pest or weed control at 80 g/ha: dosage 80 g/ha
Summary of the method: as §1

DIGSA [11] = assay: Pre-emergence herbicidal action against DIGSA; assay type: in vivo, Digitaria sanguinalis; conditions: Digitaria sanguinalis, 504 h, dosage 80 g/ha
Summary of the method: as §1

ABUTH [12] = assay: Post-emergence herbicidal action against ABUTH; assay type: in vivo, Abutilon theophrasti; conditions: Abutilon theophrasti, 504 h, visual assessment about 3 weeks after treatment vs untreated controls; for pest or weed control at 5 g/ha: dosage 5 g/ha; for pest or weed control at 20 g/ha: dosage 20 g/ha
Summary of the method: (§2)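 A WP or EC formulation diluted in water with 0.2% wetting agent was sprayed at 600 to 800 l/ha onto one-leaf-stage plants grown in sandy loam. About 3 weeks later, action was rated visually in percent, 100% being dead plants.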

AMARE [13] = assay: Post-emergence herbicidal action against AMARE; assay type: in vivo, Amaranthus retroflexus; conditions: Amaranthus retroflexus, 504 h, 20 g/ha, visual assessment about 3 weeks after treatment, 100% = plants have died, 0% = like control plants
Summary of the method: as §2

AVEFA [14] = assay: Post-emergence herbicidal action against AVEFA; assay type: in vivo, Avena fatua; conditions: Avena fatua, 504 h, 20 g/ha, visual assessment about 3 weeks after treatment, 100% = plants have died, 0% = like control plants
Summary of the method: as §2

ECHCG [15] = assay: Post-emergence herbicidal action against ECHCG; assay type: in vivo, Echinochloa crus-galli; conditions: Echinochloa crus-galli, 504 h; for pest or weed control at 5 g/ha: dosage 5 g/ha; for pest or weed control at 20 g/ha: dosage 20 g/ha
Summary of the method: as §2

MATIN [16] = assay: Post-emergence herbicidal action against MATIN; assay type: in vivo, Matricaria inodora; conditions: Tripleurospermum inodorum, 504 h; for pest or weed control at 20 g/ha: dosage 20 g/ha
Summary of the method: as §2

PHBPU [17] = assay: Post-emergence herbicidal action against PHBPU; assay type: in vivo, Pharbitis purpurea; conditions: Ipomoea purpurea, 504 h, dosage 20 g/ha
Summary of the method: as §2

SETVI [18] = assay: Post-emergence herbicidal action against SETVI; assay type: in vivo, Setaria viridis; conditions: Setaria viridis, 504 h; for pest or weed control at 5 g/ha: dosage 5 g/ha; for pest or weed control at 20 g/ha: dosage 20 g/ha
Summary of the method: as §2

VERPE [19] = assay: Post-emergence herbicidal action against VERPE; assay type: in vivo, Veronica persica; conditions: Veronica persica, 504 h, 20 g/ha
Summary of the method: as §2

VIOTR [20] = assay: Post-emergence herbicidal action against VIOTR; assay type: in vivo, Viola tricolor; conditions: Viola tricolor, 504 h
Summary of the method: as §2

DIGSA [21] = assay: Post-emergence herbicidal action against DIGSA; assay type: in vivo, Digitaria sanguinalis; conditions: Digitaria sanguinalis, 504 h
Summary of the method: as §2

ALOMY [22] = assay: Post-emergence herbicidal action against ALOMY; assay type: in vivo, Alopecurus myosuroides; conditions: Alopecurus myosuroides, 504 h, visual assessment about 3 weeks after treatment vs untreated controls
Summary of the method: as §2

| SMILES | pest or weed control at 80 g/ha (ABUTH [1]) [%] | pest or weed control at 80 g/ha (ALOMY [2]) [%] | pest or weed control at 20 g/ha (AMARE [3]) [%] | pest or weed control at 80 g/ha (AMARE [3]) [%] | pest or weed control at 80 g/ha (AVEFA [4]) [%] | pest or weed control at 20 g/ha (ECHCG [5]) [%] | pest or weed control at 80 g/ha (ECHCG [5]) [%] | pest or weed control at 20 g/ha (MATIN [6]) [%] | pest or weed control at 80 g/ha (MATIN [6]) [%] | pest or weed control at 80 g/ha (POLCO) [%] | pest or weed control at 20 g/ha (SETVI [8]) [%] | pest or weed control at 80 g/ha (SETVI [8]) [%] | pest or weed control at 80 g/ha (VERPE [9]) [%] | pest or weed control at 20 g/ha (VIOTR [10]) [%] | pest or weed control at 80 g/ha (VIOTR [10]) [%] | pest or weed control at 80 g/ha (DIGSA [11]) [%] | pest or weed control at 5 g/ha (ABUTH [12]) [%] | pest or weed control at 20 g/ha (ABUTH [12]) [%] | pest or weed control at 20 g/ha (AMARE [13]) [%] | pest or weed control at 20 g/ha (AVEFA [14]) [%] | further results |
| --- | --- | --- | --- | --- | --- | --- | --- | --- | --- | --- | --- | --- | --- | --- | --- | --- | --- | --- | --- | --- | --- |
| COc1c(C(=O)Nc2nnnn2C)ccc(C(F)(F)F)c1C(=O)NC1CC1 [Example 1-58] | 80 | 90 | 100 | 100 | 80 | 100 | 100 | 90 | 100 | 90 | 100 | 100 | 100 | 100 | 100 | 80 | 90 | 90 | 100 | 90 | pest or weed control at 80 g/ha (PHBPU [7]): 90%; pest or weed control at 20 g/ha (POLCO; dosage 20 g/ha): 80%; pest or weed control at 5 g/ha (ECHCG [15]): 90%; pest or weed control at 20 g/ha (ECHCG [15]): 90%; pest or weed control at 5 g/ha (MATIN [16]; dosage 5 g/ha): 80%; pest or weed control at 20 g/ha (MATIN [16]): 90%; pest or weed control at 20 g/ha (PHBPU [17]): 90%; pest or weed control at 5 g/ha (SETVI [18]): 100%; pest or weed control at 20 g/ha (SETVI [18]): 100%; pest or weed control at 20 g/ha (VERPE [19]): 80%; pest or weed control at 5 g/ha (VIOTR [20]): 90%; pest or weed control at 20 g/ha (VIOTR [20]): 100%; pest or weed control at 5 g/ha (DIGSA [21]): 100%; pest or weed control at 20 g/ha (DIGSA [21]): 100% |
| CCNC(=O)c1c(C(F)F)ccc(C(=O)Nc2nnnn2C)c1Br [Example 1-226] | 90 | 90 | 100 | 100 | 90 | 80 | 100 | 100 | 100 | 90 | 100 | 100 | 90 | 80 | 100 | 90 | 90 | 90 | 100 | 80 | pest or weed control at 20 g/ha (AVEFA [4]; 20 g/ha, scored visually after 3 weeks, 100% = plants have died, 0% = like control plants): 80%; pest or weed control at 5 g/ha (ALOMY [22]; dosage 5 g/ha): 80%; pest or weed control at 20 g/ha (ALOMY [22]; dosage 20 g/ha): 100%; pest or weed control at 5 g/ha (ECHCG [15]): 100%; pest or weed control at 20 g/ha (ECHCG [15]): 100%; pest or weed control at 20 g/ha (MATIN [16]): 80%; pest or weed control at 20 g/ha (PHBPU [17]): 80%; pest or weed control at 5 g/ha (SETVI [18]): 100%; pest or weed control at 20 g/ha (SETVI [18]): 100%; pest or weed control at 20 g/ha (VERPE [19]): 90%; pest or weed control at 5 g/ha (VIOTR [20]): 100%; pest or weed control at 20 g/ha (VIOTR [20]): 100%; pest or weed control at 5 g/ha (DIGSA [21]): 90%; pest or weed control at 20 g/ha (DIGSA [21]): 100% |
